Assay in all cases: NCI anticancer screen, dose series, 48 h
Experiment [1] has as its system OVCAR-8 ovarian.
For experiment [2], the system named is CCRF-CEM leukemia.
Experiment [3] deals with SF-295 CNS.
Experiment [4] concerns NCI/ADR-RES ovarian.
Experiment [5] has as its system HCC-2998 colon.
In experiment [6] the test system is A549 NSCLC.
Experiment [7] has as its system SK-MEL-5 melanoma.
Experiment [8] concerns SNB-19 CNS.
In experiment [9] the test system is TK-10 renal.
Experiment [10] relates to SN12C renal.
Experiment [11] deals with M14 melanoma.
Experiment [12] concerns HT29 colon.
The test system of experiment [13] is NCI-H226 lung.
The test system of experiment [14] is NCI-H23 lung.
The test system of experiment [15] is OVCAR-5 ovarian.
Experiment [16] relates to SK-MEL-2 melanoma.

Molecules are shown by their SMILES.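 Values below derive from 48-hour exposures of cells grown in 96-well plates, with endpoints linearly interpolated between the two concentrations bracketing the appropriate inhibition level. TGI is the concentration that stops growth completely.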

In the case of `CC[C@@H]1CC[C@@H]2[C@H](CC[C@]3(C)[C@@H](OS(=O)(=O)c4ccc(C)cc4)CC[C@@H]23)[C@H]1COS(=O)(=O)c1ccc(C)cc1`, the TGI in [1], in experiment [2], in [3], in experiment [4], in experiment [5] and in [6] was more than 100 µM each time. Further, the TGI in [7], in [8], in [9], in experiment [10], in experiment [11] and in [12] was more than 100 µM in each case. Further, the TGI in experiment [13] was more than 100 µM.

Turning to `CCN(CC)/C(Sc1ccccc1)=C(\C(Cl)=C(Cl)Cl)[N+](=O)[O-]`, the TGI in [1] is 35.6 µM; in [2] it was 20.9 µM; in [14], 36.1 µM; in experiment [3] it was 37.1 µM; in experiment [4], more than 100 µM; in experiment [5] it was 34.3 µM. Further, the TGI in experiment [6] is 52.4 µM; in [7] it was 29 µM; in experiment [8], 49.9 µM; in [9], 31.3 µM; in [10], 37.8 µM; in experiment [11], 37.5 µM. For the same compound, the TGI in experiment [12] was determined as 45.8 µM; in experiment [13], 42.8 µM.

On to `Cc1cc2c(cc1Cl)S(=O)(=O)OC(c1ccc([N+](=O)[O-])cc1)=N2`, for which the TGI in experiment [1], in [2], in [3], in experiment [4], in experiment [5] and in experiment [6] was more than 100 µM each time. Also, the TGI in experiment [7], in experiment [8], in [9], in experiment [10], in experiment [11] and in [12] was more than 100 µM each time. Also, the TGI in [13] is more than 100 µM.

As to `CCCN(CCCc1ccccc1)CCc1ccc2[nH]c(=S)[nH]c2c1`, the TGI in experiment [1] is more than 100 µM; in experiment [14] it was more than 100 µM; in [3], 26 µM; in experiment [15], more than 100 µM; in experiment [4], more than 100 µM; in experiment [5], 26 µM. Also, the TGI in experiment [6] was more than 100 µM; in experiment [8] it was 91.7 µM; in [9], more than 100 µM; in experiment [10], more than 100 µM; in experiment [11], 40 µM; in experiment [13], more than 100 µM. The compound also had a TGI in experiment [16] of 38.4 µM.

Take `CC(C)(C)OC(=O)N1CCC(C(=O)O)CC1`: the TGI in experiment [1], in [2], in experiment [14], in [3], in experiment [15] and in experiment [4] was more than 100 µM each time. In addition, the TGI in [5], in experiment [6], in [7], in experiment [8], in experiment [9] and in experiment [10] was more than 100 µM each time. Further, the TGI in experiment [11], in [12] and in experiment [16] was more than 100 µM in each case.

`COc1ccc(CNC(=O)NCn2cc(-c3ccccc3)nn2)cc1`: the TGI in experiment [1], in [2], in [14], in experiment [3], in experiment [15] and in [4] was more than 100 µM each time. The TGI in experiment [5], in experiment [6], in experiment [7], in experiment [8], in experiment [9] and in [10] was more than 100 µM in each case. The TGI in experiment [11], in experiment [12] and in experiment [16] was more than 100 µM throughout.

For the compound `CC[C@]1(Cc2ccc(OC)c(OC)c2)C=[N+]([O-])O[C@H](OC2CCCC2(c2ccccc2)c2ccccc2)[C@@H]1OC(C)=O` (stereo not given in full), the TGI is 7.98 µM in experiment [1]; more than 100 µM in [2]; 19.9 µM in experiment [14]; 17.5 µM in [3]; 44.2 µM in experiment [15]; 14.8 µM in [4]. For the same compound, the TGI in experiment [5] was 7.71 µM; in experiment [6] it was 18.8 µM; in experiment [7] it was 11.9 µM; in [8], 18.5 µM; in experiment [9], 10.8 µM; in experiment [10], more than 39.3 µM. Moreover, the TGI in experiment [11] stood at 14.9 µM; in [12], 4.55 µM; in experiment [16], 14.7 µM.

With `COc1ccc(-n2cnc3c2NC(C)(C)N=C3C(N)=O)c(OC)c1`, the TGI in experiment [1], in experiment [2], in experiment [14], in experiment [3], in [15] and in [4] was more than 100 µM in each case. In addition, the TGI in experiment [5], in experiment [6], in experiment [7], in experiment [8], in experiment [9] and in experiment [10] was more than 100 µM in each case. The TGI in experiment [11], in experiment [12] and in experiment [13] was more than 100 µM each time.

Turning to `C=CCOC(=O)NC1C(OC(C)[C@@H](NC(=O)OCc2ccccc2)C(=O)OC(C)(C)C)OC(COC(C)=O)C(OC(C)=O)C1OC(C)=O` (stereo not given in full), the TGI in experiment [1], in experiment [2], in experiment [14], in experiment [3], in experiment [15] and in experiment [4] was more than 100 µM in each case. Also, the TGI in experiment [5], in experiment [6], in experiment [7], in experiment [8], in experiment [9] and in experiment [10] was more than 100 µM in each case. Besides, the TGI in [11], in [12] and in experiment [13] was more than 100 µM in each case.

Take `O=S(Nc1ccccc1)c1cccc(Cl)c1` (stereo not given): the TGI in experiment [1], in experiment [2], in experiment [14], in [3], in experiment [15] and in experiment [4] was more than 100 µM each time. In addition, the TGI was 76.3 µM in experiment [5]; more than 100 µM in experiment [6]; more than 100 µM in experiment [7]; more than 100 µM in experiment [8]; more than 100 µM in [9]; more than 100 µM in experiment [10]. The TGI in experiment [11], in experiment [12] and in [13] was more than 100 µM in each case.

Take `COc1ccc(-n2c(=O)[nH]n(C(C)=O)c2=O)cc1`: the TGI in experiment [1], in experiment [2], in [14], in [3], in experiment [15] and in experiment [4] was more than 100 µM in each case. Besides, the TGI in experiment [6], in experiment [7], in [8], in experiment [9], in [10] and in experiment [11] was more than 100 µM each time. For the same compound, the TGI in [12], in experiment [13] and in experiment [16] was more than 100 µM throughout.

For `COc1ccc(CC(=O)N2CCC3(C)CC(=O)CC=C23)cc1OC` (stereo not given), the TGI in experiment [1], in experiment [14], in [3], in experiment [15], in experiment [4] and in [6] was more than 100 µM in each case. Also, the TGI in experiment [7], in experiment [8], in [10], in experiment [11], in experiment [12] and in experiment [13] was more than 100 µM each time. The same compound came in with a TGI in experiment [16] of more than 100 µM.

On to `COC(=O)CNS(=O)(=O)c1ccc(-c2c3nc(c(-c4ccc(S(=O)(=O)NCC(=O)OC)cc4)c4ccc([nH]4)c(-c4ccc(S(=O)(=O)NCC(=O)OC)cc4)c4nc(c(-c5ccc(S(=O)(=O)NCC(=O)OC)cc5)c5ccc2[nH]5)C=C4)C=C3)cc1`, for which the TGI in [1], in experiment [2], in experiment [14], in experiment [3], in experiment [15] and in [4] was more than 100 µM throughout. Moreover, the TGI in experiment [5], in experiment [6], in [7], in [8], in [9] and in experiment [10] was more than 100 µM each time. Further, the values for the TGI in experiment [11], in experiment [12] and in [16] were 41.9 µM, more than 100 µM and more than 100 µM, respectively.

As to `CN(C)CCCNc1ccc([N+](=O)[O-])c2nc3ccccc3c(N)c12`, the TGI in experiment [2] was 2.99 µM; in [14], 2.78 µM; in [3], 1.53 µM; in experiment [15] it was more than 10 µM; in experiment [4], 1.84 µM; in experiment [6], 2.37 µM. For the same compound, the TGI in experiment [7] is 2.44 µM; in experiment [8], 3.23 µM; in [9], more than 10 µM; in experiment [10], 7.37 µM; in experiment [11], 1.95 µM; in experiment [12], 1.72 µM. Besides, the results for the TGI in experiment [13] and in experiment [16] were more than 10 µM and 2.69 µM, respectively.
